Measurements: ChEMBL document CHEMBL1201862, “PubChem BioAssay data set” (2004)
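Cells were grown in 96-well plates and exposed to each compound for 48 hours at five concentrations; endpoints were interpolated linearly between bracketing concentrations, or set to the highest concentration if not reached. The concentration for 50% growth inhibition is given as GI50.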 Active and inactive are the calls of the source. Rule as the data show it: active = GI50 up to about 1.1 µM and inactive = higher.

Legend:
Experiment in all cases: NCI-60 cell line screen, 48 h
[1] = test system: SK-MEL-5
[2] = test system: OVCAR-3
[3] = test system: RPMI-8226
[4] = test system: NCI-H460
[5] = test system: T47D
[6] = test system: SW-620
[7] = test system: Hs-578T
[8] = test system: MDA-MB-435
[9] = test system: HCC 2998
[10] = test system: NCI-H23
[11] = test system: MOLT-4
[12] = test system: MCF7
[13] = test system: 786-0
[14] = test system: OVCAR-4
[15] = test system: TK-10
[16] = test system: KM12
[17] = test system: NCI-H522
[18] = test system: UO-31
[19] = test system: SN12C
[20] = test system: SNB-75

| Compound | GI50 [1] | GI50 [2] | GI50 [3] | GI50 [4] | GI50 [5] | GI50 [6] | GI50 [7] | GI50 [8] | GI50 [9] | GI50 [10] | GI50 [11] | GI50 [12] | GI50 [13] | GI50 [14] | GI50 [15] | GI50 [16] | GI50 [17] | GI50 [18] | GI50 [19] | GI50 [20] |
| --- | --- | --- | --- | --- | --- | --- | --- | --- | --- | --- | --- | --- | --- | --- | --- | --- | --- | --- | --- | --- |
| COC(=O)c1ccccc1CC(Cc1ccccc1)C(=O)OC (stereo not given) | 22.8 µM (inactive) | 58.1 µM (inactive) | 27.6 µM (inactive) | > 100 µM (inactive) | > 10 µM (inactive) | > 100 µM (inactive) | 56 µM (inactive) | 75.3 µM (inactive) | 40.3 µM (inactive) | 46.6 µM (inactive) | 27.4 µM (inactive) | 82 µM (inactive) | 71.3 µM (inactive) | 96.8 µM (inactive) | 99.1 µM (inactive) | 87.3 µM (inactive) | 50.6 µM (inactive) | 39.1 µM (inactive) | > 100 µM (inactive) | 20 µM (inactive) |
| c1ccc2c(c1)CC1c3[nH]c4ccccc4c3CCN21 (stereo not given) | > 10 µM (inactive) | > 10 µM (inactive) | > 10 µM (inactive) | > 10 µM (inactive) | > 10 µM (inactive) | > 10 µM (inactive) | > 10 µM (inactive) | > 10 µM (inactive) | > 10 µM (inactive) | > 10 µM (inactive) | > 10 µM (inactive) | > 10 µM (inactive) | > 10 µM (inactive) | > 10 µM (inactive) | > 10 µM (inactive) | > 10 µM (inactive) | > 10 µM (inactive) | > 10 µM (inactive) | > 10 µM (inactive) | > 10 µM (inactive) |
| CCOC(=O)N1c2ccccc2N(C(=O)OCC)C1CC(=O)/C=C/c1ccccc1 | 2.47 µM (inactive) | 3.13 µM (inactive) | 3.19 µM (inactive) | 3.03 µM (inactive) | 5.16 µM (inactive) | 2.06 µM (inactive) | 1.87 µM (inactive) | 2.74 µM (inactive) | 3 µM (inactive) | 2.88 µM (inactive) | 2.4 µM (inactive) | 3.1 µM (inactive) | 3.3 µM (inactive) | 2.23 µM (inactive) | 3.74 µM (inactive) | 3.05 µM (inactive) | 1.78 µM (inactive) | 3.82 µM (inactive) | 3.66 µM (inactive) | 3.34 µM (inactive) |
| CC(C)(C)OC(=O)NC(Cc1ccccc1)C(=O)OCN1C(=O)C2C3C=CC(C2C1=O)C1C2C(=O)N(COC(=O)C(Cc4ccccc4)NC(=O)OC(C)(C)C)C(=O)C2C31 (stereo not given) | 28 µM (inactive) | 63.1 µM (inactive) | 18.8 µM (inactive) | 3.82 µM (inactive) | 36.3 µM (inactive) | 26.3 µM (inactive) | 18.7 µM (inactive) | 53.7 µM (inactive) | 40 µM (inactive) | 38.8 µM (inactive) | 10 µM (inactive) | 13.4 µM (inactive) | 28.2 µM (inactive) | 37.1 µM (inactive) | 31 µM (inactive) | > 100 µM (inactive) | 23.7 µM (inactive) | 19.5 µM (inactive) | 25.5 µM (inactive) | 19 µM (inactive) |
| COc1cccc(-c2cc(O)c3cc(N4CCN(C)CC4)ccc3n2)c1 | 0.454 µM (active) |  | 3.35 µM (inactive) | 2.99 µM (inactive) | > 10 µM (inactive) | 0.522 µM (active) | 0.774 µM (active) | 0.225 µM (active) | 2.01 µM (inactive) | 2.54 µM (inactive) | 2.91 µM (inactive) | 2.67 µM (inactive) | 2.96 µM (inactive) | 5.28 µM (inactive) | 9.64 µM (inactive) | 1.91 µM (inactive) | 1.57 µM (inactive) | 6.9 µM (inactive) | 2.92 µM (inactive) | 5.3 µM (inactive) |
| CC1=NN(C(=O)CSc2nc3ccc(I)cc3c(=O)n2Cc2ccccc2)C(=O)C1 | 21.7 µM (inactive) | 27.9 µM (inactive) | 35 µM (inactive) | 31.8 µM (inactive) | 19.1 µM (inactive) | 46.5 µM (inactive) | 7.89 µM (inactive) | 26.4 µM (inactive) | 39.1 µM (inactive) | 16.1 µM (inactive) | 24.4 µM (inactive) | 22.8 µM (inactive) | 36.9 µM (inactive) | 24.2 µM (inactive) | 47.6 µM (inactive) | 28.3 µM (inactive) | 7.05 µM (inactive) |  | 29.3 µM (inactive) | 35.3 µM (inactive) |
| CCCCCC(C(O)C#N)C(O)(C(F)(F)F)C(F)(F)F (stereo not given) | > 10 µM (inactive) | > 10 µM (inactive) | > 10 µM (inactive) |  | > 10 µM (inactive) | > 10 µM (inactive) | > 10 µM (inactive) | > 10 µM (inactive) | > 10 µM (inactive) | > 10 µM (inactive) | > 10 µM (inactive) | > 10 µM (inactive) | > 10 µM (inactive) | > 10 µM (inactive) | > 10 µM (inactive) | > 10 µM (inactive) | > 10 µM (inactive) |  | > 10 µM (inactive) | > 10 µM (inactive) |
| CC(=O)Oc1cccc2c1C(=O)CCCC2 | > 100 µM (inactive) | > 100 µM (inactive) |  | > 100 µM (inactive) | > 100 µM (inactive) | > 100 µM (inactive) | > 100 µM (inactive) | > 100 µM (inactive) | > 100 µM (inactive) | > 100 µM (inactive) | > 100 µM (inactive) | > 100 µM (inactive) | > 100 µM (inactive) | > 100 µM (inactive) | > 100 µM (inactive) | > 100 µM (inactive) | > 100 µM (inactive) | > 100 µM (inactive) | > 100 µM (inactive) | 0.0692 µM (active) |
| O=c1oc2ccc([N+](=O)[O-])cc2c(Nc2ccc3c(c2)Oc2ccccc2O3)c1[N+](=O)[O-] | 29.1 µM (inactive) | 47.3 µM (inactive) | 23.3 µM (inactive) | 30 µM (inactive) | 50.2 µM (inactive) |  | 44.3 µM (inactive) | 37.1 µM (inactive) | 27.7 µM (inactive) | 25.1 µM (inactive) |  | 26.5 µM (inactive) | 23.4 µM (inactive) | 42 µM (inactive) | 37.3 µM (inactive) | 31.9 µM (inactive) | 35.5 µM (inactive) | 69.2 µM (inactive) | 32.3 µM (inactive) | 40.9 µM (inactive) |
| CN(C)c1ccc(/C=C/C(=O)CC(=O)/C=C/c2ccc(N(C)C)cc2)cc1 | > 100 µM (inactive) | 65.3 µM (inactive) | > 100 µM (inactive) | > 100 µM (inactive) | > 100 µM (inactive) | > 100 µM (inactive) | > 100 µM (inactive) | > 100 µM (inactive) | > 100 µM (inactive) |  | > 100 µM (inactive) | > 100 µM (inactive) | > 100 µM (inactive) | > 100 µM (inactive) | > 100 µM (inactive) | > 100 µM (inactive) | > 100 µM (inactive) | > 100 µM (inactive) | > 100 µM (inactive) | > 100 µM (inactive) |
| COc1ccc2c(O)c3[n+](cc2c1OC)CCc1cc2c(cc1-3)OCO2 | 99.1 µM (inactive) | > 100 µM (inactive) | 84.3 µM (inactive) | 79.4 µM (inactive) | 88.3 µM (inactive) | 45.5 µM (inactive) | > 100 µM (inactive) | 24.8 µM (inactive) | > 100 µM (inactive) | > 100 µM (inactive) | > 100 µM (inactive) | 56.2 µM (inactive) |  | > 100 µM (inactive) | > 100 µM (inactive) | 66.1 µM (inactive) | 17 µM (inactive) |  | > 100 µM (inactive) | > 100 µM (inactive) |
